Test results from ChEMBL document CHEMBL1938312, “Design and combinatorial synthesis of a novel kinase-focused library using click chemistry-based fragment assembly” (Bioorg Med Chem Lett, 2012).
Active and inactive are the calls of the source. The calls are words filed in the database; no cut-off is given here.

Experiments:
[1] = molecular target: Tyrosine-protein kinase CSK (Homo sapiens) (UniProt P41240); assay: Inhibition of CSK at 10 uM by colorimetric analysis
[2] = molecular target: T1, Tyrosine-protein kinase JAK3 (Homo sapiens) (UniProt P52333); assay: Inhibition of JAK3 at 10 uM by colorimetric analysis
T1 sequence (whole entry): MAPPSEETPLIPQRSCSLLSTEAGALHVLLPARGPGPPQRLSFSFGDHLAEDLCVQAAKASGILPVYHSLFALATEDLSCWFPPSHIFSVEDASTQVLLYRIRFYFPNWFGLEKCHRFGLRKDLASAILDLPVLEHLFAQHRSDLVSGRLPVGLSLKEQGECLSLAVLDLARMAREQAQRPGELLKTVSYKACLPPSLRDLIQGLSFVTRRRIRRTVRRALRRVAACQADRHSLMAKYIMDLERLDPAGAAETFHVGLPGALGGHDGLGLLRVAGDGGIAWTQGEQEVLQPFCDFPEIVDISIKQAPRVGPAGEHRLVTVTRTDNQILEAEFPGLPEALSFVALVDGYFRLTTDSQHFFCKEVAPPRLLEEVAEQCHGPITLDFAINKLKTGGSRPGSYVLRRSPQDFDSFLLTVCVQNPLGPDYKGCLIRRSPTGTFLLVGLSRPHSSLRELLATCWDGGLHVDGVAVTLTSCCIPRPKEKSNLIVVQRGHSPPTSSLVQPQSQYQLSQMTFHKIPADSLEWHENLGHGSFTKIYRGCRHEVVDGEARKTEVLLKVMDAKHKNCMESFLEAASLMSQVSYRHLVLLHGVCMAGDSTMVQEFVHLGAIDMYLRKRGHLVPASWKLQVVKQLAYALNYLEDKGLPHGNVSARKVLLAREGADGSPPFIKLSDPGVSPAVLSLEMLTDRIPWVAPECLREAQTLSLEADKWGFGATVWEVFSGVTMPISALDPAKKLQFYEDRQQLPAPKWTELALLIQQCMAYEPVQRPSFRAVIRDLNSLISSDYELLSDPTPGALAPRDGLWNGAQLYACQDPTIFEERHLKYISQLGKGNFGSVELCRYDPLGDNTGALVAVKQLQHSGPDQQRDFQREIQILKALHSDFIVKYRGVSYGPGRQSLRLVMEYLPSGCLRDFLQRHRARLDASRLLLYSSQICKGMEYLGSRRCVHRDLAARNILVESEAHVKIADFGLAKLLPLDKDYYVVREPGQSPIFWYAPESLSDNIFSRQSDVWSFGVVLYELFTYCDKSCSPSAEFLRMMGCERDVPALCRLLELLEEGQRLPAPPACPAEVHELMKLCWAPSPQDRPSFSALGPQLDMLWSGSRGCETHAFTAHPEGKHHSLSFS

[3] = molecular target: Tyrosine-protein kinase SYK (Homo sapiens) (UniProt P43405); assay: Inhibition of SYK at 10 uM by colorimetric analysis
[4] = molecular target: T2, 5'-AMP-activated protein kinase subunit beta-1 (Homo sapiens) (UniProt Q9Y478); assay: Inhibition of AMPKbeta1 at 10 uM by colorimetric analysis
T2 sequence (whole entry): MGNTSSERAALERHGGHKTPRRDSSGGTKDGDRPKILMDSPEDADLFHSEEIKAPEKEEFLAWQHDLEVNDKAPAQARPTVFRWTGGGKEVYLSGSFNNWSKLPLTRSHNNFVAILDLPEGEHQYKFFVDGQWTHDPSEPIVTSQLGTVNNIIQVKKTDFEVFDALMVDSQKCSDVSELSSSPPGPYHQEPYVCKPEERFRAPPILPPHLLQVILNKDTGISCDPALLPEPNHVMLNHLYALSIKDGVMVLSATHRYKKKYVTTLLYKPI

[5] = molecular target: Death-associated protein kinase 1 (Homo sapiens) (UniProt P53355); assay: Inhibition of DAPK1 at 10 uM by colorimetric analysis
[6] = molecular target: T3, Interleukin-1 receptor-associated kinase 4 (Homo sapiens) (UniProt Q9NWZ3); assay: Inhibition of IRAK4 at 10 uM by colorimetric analysis
T3 sequence (whole entry): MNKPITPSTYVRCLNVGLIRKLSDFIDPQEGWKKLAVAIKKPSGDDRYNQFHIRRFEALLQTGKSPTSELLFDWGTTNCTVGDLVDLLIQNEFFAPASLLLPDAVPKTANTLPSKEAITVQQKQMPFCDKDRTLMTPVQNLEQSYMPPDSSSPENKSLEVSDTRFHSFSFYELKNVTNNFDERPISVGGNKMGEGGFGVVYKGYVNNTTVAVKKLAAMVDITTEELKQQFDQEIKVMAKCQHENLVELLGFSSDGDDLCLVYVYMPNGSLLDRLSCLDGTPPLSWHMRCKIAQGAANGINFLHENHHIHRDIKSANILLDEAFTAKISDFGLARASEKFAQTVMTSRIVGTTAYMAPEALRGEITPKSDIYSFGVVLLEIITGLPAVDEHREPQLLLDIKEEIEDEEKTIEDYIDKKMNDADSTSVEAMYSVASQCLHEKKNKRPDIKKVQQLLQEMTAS

[7] = molecular target: T4, Serine/threonine-protein kinase 4 (Homo sapiens) (UniProt Q13043); assay: Inhibition of MST1 at 10 uM by colorimetric analysis
T4 sequence (whole entry): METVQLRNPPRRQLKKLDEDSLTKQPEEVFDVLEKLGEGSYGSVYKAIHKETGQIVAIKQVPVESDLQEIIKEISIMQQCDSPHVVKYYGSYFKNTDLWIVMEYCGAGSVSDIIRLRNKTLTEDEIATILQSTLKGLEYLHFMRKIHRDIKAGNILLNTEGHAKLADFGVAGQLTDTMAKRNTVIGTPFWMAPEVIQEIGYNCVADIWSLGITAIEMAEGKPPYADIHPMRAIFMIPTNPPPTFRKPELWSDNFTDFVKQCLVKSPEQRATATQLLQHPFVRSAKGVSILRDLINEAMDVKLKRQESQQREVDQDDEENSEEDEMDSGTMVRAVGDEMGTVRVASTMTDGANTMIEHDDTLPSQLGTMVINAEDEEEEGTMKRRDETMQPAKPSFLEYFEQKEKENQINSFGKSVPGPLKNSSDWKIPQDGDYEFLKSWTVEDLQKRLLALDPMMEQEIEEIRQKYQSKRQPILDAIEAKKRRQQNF

[8] = molecular target: Serine/threonine-protein kinase pim-1 (Homo sapiens) (UniProt P11309); assay: Inhibition of PIM1 at 10 uM by colorimetric analysis
[9] = molecular target: Protein kinase C alpha type (Homo sapiens) (UniProt P17252); assay: Inhibition of PKCalpha at 10 uM by colorimetric analysis
[10] = molecular target: Rho-associated protein kinase 1 (Homo sapiens) (UniProt Q13464); assay: Inhibition of ROCK1 at 10 uM by colorimetric analysis
Sequence of Rho-associated protein kinase 1 (Homo sapiens) (Q13464 2-1354 limits assumed): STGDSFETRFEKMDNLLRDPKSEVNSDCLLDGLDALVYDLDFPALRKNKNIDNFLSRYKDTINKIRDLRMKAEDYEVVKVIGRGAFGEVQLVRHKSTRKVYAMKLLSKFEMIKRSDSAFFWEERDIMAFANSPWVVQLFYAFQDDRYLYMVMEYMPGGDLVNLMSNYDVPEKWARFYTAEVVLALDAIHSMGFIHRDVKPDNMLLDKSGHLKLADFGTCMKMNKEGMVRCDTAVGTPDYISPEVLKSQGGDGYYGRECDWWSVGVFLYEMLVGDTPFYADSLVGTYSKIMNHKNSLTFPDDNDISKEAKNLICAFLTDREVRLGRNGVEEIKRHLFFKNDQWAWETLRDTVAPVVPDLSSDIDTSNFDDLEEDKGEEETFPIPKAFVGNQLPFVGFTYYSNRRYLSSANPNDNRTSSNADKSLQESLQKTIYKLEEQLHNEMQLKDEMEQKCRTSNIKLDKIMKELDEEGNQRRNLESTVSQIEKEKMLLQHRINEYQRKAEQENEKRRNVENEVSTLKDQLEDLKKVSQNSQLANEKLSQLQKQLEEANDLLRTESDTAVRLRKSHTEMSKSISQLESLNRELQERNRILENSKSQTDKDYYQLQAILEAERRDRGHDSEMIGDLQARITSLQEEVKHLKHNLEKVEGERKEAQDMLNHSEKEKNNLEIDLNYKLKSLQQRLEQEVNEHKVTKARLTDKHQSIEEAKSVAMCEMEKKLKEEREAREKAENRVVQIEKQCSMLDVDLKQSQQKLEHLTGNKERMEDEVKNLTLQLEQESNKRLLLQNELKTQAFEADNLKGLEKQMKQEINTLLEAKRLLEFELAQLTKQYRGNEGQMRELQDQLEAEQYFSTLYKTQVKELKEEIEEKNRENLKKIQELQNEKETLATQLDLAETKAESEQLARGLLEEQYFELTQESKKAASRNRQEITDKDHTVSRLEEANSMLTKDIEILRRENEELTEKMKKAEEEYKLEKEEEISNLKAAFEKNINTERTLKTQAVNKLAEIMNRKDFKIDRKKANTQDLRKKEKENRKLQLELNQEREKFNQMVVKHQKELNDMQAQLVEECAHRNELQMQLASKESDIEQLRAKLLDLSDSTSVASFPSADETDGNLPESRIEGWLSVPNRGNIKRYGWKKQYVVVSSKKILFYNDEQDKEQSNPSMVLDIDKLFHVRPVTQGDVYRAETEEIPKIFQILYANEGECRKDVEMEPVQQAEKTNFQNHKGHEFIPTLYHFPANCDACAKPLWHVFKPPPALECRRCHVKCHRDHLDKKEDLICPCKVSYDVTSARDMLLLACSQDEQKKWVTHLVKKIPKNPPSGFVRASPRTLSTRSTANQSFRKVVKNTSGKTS

Sequence of Death-associated protein kinase 1 (Homo sapiens) (P53355 whole entry, looked up): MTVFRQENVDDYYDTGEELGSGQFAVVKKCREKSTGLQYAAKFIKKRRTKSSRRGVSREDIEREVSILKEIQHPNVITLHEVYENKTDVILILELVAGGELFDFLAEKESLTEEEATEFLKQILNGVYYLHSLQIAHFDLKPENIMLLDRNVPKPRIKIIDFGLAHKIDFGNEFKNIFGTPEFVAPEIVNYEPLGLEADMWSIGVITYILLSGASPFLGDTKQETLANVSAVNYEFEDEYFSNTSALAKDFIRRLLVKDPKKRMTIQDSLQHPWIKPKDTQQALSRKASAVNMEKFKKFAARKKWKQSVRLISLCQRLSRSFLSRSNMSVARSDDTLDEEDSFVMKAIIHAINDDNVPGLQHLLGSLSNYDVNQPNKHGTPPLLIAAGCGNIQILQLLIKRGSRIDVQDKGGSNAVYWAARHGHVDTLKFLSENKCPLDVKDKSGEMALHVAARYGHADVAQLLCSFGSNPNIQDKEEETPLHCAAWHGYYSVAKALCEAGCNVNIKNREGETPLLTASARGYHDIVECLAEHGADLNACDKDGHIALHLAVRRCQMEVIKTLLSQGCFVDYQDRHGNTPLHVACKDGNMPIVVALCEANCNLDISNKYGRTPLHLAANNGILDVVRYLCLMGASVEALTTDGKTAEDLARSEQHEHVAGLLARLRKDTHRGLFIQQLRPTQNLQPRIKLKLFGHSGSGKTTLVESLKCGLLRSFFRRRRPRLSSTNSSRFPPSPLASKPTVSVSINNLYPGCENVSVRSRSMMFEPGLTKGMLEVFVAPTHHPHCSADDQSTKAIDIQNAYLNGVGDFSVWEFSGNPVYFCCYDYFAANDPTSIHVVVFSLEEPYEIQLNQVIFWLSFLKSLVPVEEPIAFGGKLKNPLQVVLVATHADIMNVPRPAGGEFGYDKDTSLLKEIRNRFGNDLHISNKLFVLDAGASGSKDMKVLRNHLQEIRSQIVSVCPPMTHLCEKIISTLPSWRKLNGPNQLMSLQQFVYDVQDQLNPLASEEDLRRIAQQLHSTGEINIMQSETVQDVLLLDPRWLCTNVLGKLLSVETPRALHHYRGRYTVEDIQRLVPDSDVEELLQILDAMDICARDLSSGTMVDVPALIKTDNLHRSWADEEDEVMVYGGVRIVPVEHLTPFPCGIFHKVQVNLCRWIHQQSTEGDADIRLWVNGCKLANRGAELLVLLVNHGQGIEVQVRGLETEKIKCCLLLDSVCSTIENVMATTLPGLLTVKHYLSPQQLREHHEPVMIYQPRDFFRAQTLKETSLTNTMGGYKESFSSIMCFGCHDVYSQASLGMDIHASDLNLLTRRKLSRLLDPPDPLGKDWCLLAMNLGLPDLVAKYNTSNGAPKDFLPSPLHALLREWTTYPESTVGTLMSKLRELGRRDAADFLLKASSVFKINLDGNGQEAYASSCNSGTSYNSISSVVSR
Sequence of Tyrosine-protein kinase CSK (Homo sapiens) (P41240 2-450 limits assumed): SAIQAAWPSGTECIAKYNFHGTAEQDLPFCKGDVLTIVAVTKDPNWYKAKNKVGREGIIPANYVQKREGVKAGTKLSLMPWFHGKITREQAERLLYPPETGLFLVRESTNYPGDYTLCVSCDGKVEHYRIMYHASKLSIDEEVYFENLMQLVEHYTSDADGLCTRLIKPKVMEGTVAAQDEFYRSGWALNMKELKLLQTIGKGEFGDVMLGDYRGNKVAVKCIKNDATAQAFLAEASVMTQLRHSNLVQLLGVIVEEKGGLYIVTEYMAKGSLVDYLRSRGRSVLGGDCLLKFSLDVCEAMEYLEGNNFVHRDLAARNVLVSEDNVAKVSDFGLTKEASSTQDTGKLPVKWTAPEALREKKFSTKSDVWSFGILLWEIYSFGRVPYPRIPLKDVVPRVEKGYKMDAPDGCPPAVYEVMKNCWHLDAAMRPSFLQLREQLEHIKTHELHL
Sequence of Serine/threonine-protein kinase pim-1 (Homo sapiens) (P11309 whole entry, looked up): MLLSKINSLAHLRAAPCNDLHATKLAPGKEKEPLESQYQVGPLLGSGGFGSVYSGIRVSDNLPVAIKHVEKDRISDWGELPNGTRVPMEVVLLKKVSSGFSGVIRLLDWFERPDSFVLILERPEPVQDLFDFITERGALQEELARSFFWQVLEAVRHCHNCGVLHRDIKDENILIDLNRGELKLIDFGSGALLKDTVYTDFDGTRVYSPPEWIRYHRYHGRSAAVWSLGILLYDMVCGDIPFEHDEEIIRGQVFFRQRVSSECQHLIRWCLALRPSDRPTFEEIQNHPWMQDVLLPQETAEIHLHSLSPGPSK

inhibition [1]	inhibition [2]	inhibition [3]	inhibition [4]	inhibition [6]	inhibition [7]	inhibition [8]	inhibition [9]	inhibition [10]	Compound	inhibition [5]
inactive	inactive	inactive	Active	Active	Active	Active	Active	Active	Clc1cccc(-n2nncc2-c2ccncc2)c1	Active
inactive	inactive	inactive	Active	Active	Active	Active	Active	Active	Clc1ccc(-n2cc(-c3ccncc3)nn2)cc1	Active
inactive	inactive	inactive	Active	Active	Active	Active	Active	Active	Clc1ccc(-n2nncc2-c2ccncc2)cc1	Active
inactive	inactive	inactive	Active	Active	Active	Active	Active	Active	Clc1cccc(-n2cc(-c3ccncc3)nn2)c1	Active
